Tested on: serum albumin
Test: Anti-glycation effect: serum albumin incubated with fructose, fluorescent 'AGE' (FFI) formation
Type: biochemical
Conditions: one week
Description: Principle: The in vitro model consists in serum albumin incubated with fructose at […]. Glycation is monitored through the formation of fluorescent compounds, generally pentosidines or FFI (furoyl-furanyl-imidazoles.
Protocol: Non-enzymatic glycation between serum albumin and fructose is a slow spontaneous reaction that is accelerated by heat.
In our test, serum albumin (at 2%) and fructose (at 100 mM) were incubated in phosphate buffer medium pH 7.4 at 50° C. for one week. […] The reference (Control) glycation value after one week is determined on the serum albumin and fructose incubation medium. The positive control for glycation inhibition is obtained by incubation in the presence of 0.03% aminoguanidine and the test incubations were conducted in the presence of kombucha at various concentrations.
Results: For each fluorescence value determined, the percentage change on the control is calculated. The results shown in the following table are mean values for n=4 replicates.

- % 'AGE' decrease (inhibition of 'AGE' production, FFI compounds) (aminoguanidine 0.03%, serum albumin 2% + fructose 100 mM, pH 7.4, 50° C., mean of n=4): 89 ± 5%
SMILES: N=C(N)NN [aminoguanidine]
- Inhibition of glycation, result in words (serum albumin + fructose, 50° C.): excellent inhibition of glycation
